Counter-ions that a name gives are not always drawn. Like-named read-outs stand apart in the source and are kept apart here.
Assays:
Assay type in all cases: biochemical
Serotonin (5-HT) uptake = molecular target: T1, Serotonin (5-HT) uptake (Rattus norvegicus, UniProt P31652); test: Serotonin (5-HT) uptake inhibitory activity using rat brain synaptosome (frontal cortex); conditions: tritium-labeled 5-HT 8 nM, 37° C. 10 minutes
T1 construct: The suspension was used as a crude synaptosome fraction; from tissue; host or cells: rat (male Wistar) frontal cortex, crude synaptosome fraction
T1 sequence (P31652 whole entry): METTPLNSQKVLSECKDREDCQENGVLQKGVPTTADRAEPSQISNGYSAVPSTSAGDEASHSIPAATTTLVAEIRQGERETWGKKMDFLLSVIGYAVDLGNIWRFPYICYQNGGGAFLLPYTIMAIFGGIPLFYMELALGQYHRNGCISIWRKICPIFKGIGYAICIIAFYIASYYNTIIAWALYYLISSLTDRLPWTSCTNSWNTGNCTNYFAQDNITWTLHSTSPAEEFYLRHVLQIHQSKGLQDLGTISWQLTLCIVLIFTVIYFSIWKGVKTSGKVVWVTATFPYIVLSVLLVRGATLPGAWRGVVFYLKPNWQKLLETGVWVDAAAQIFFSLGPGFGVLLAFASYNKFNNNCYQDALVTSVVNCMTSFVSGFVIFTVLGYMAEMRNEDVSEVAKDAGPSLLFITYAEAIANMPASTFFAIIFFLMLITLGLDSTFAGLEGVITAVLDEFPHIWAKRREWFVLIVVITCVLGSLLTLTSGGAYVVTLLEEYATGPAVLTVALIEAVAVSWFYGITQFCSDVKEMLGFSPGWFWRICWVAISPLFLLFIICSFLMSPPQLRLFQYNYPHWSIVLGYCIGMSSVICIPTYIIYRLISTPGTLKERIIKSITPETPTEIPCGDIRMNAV
Description: Measurement of Serotonin (5-HT) Uptake Inhibitory Activity of Test Compound Using Rat Brain Synaptosome
(§1) Male Wistar rats were decapitated, and their brains were removed and dissected to remove the frontal cortex. The separated frontal cortex was placed in a 20-fold weight of a 0.32 molarity (M) sucrose solution and homogenized with a potter homogenizer. The homogenate was centrifuged at 1000 g at 4° C. for 10 minutes, and the supernatant was further centrifuged at 20000 g at 4° C. for 20 minutes. […] The suspension was used as a crude synaptosome fraction.
(§2) Uptake reaction was performed using each well of a 96-well round-bottom plate and a 200 μl volume in total of a solution containing pargyline (final concentration: 10 μM) and ascorbic acid (final concentration: 0.2 mg/ml).
(§3) Specifically, a solvent, unlabeled 5-HT, and serially diluted test compounds were separately added to the wells, and the synaptosome fraction was added in an amount 1/10 of the final volume to each well and preincubated at 37° C. for 10 minutes. Then, a tritium-labeled 5-HT solution (final concentration: 8 nM) was added thereto to initiate uptake reaction at 37° C. 10 minutes later, the uptake reaction was terminated by suction filtration through a 96-well glass fiber filter plate. Furthermore, the filter was washed with a cold saline and then sufficiently dried. MicroScint-O (PerkinElmer Co., Ltd.) was added thereto, and the residual radioactivity on the filter was measured.
(§4) An uptake value obtained by the addition of only the solvent was defined as 100%, and an uptake value (nonspecific uptake value) obtained by the addition of the unlabeled 5-HT (final concentration: 10 μM) was defined as 0%. A 50%, inhibitory concentration was calculated from the test compound concentrations and inhibitory activities thereat.

[1] = molecular target: Norepinephrine (NE) uptake (Rattus norvegicus, UniProt Q9WTR4); test: Norepinephrine (NE) uptake inhibitory activity using rat brain synaptosome (hippocampus)
Description: Measurement of Norepinephrine (NE) Uptake Inhibitory Activity of Test Compound Using Rat Brain Synaptosome
Male Wistar rats were decapitated, and their brains were removed and dissected to remove the hippocampus. The separated hippocampus was placed in a 20-fold weight of a 0.32 molarity (M) sucrose solution and homogenized with a potter homogenizer. The homogenate was centrifuged at 1000 g at 4° C. for 10 minutes, and the supernatant was further centrifuged at 20000 g at 4° C. for 20 minutes. The pellet was suspended in an incubation buffer (20 mM HEPES buffer (pH 7.4) containing 10 mM glucose, 145 mM sodium chloride, 4.5 mM potassium chloride, 1.2 mM magnesium chloride, and 1.5 mM calcium chloride). The suspension was used as a crude synaptosome fraction.
as §2
as §3, with “unlabeled NE,” for “unlabeled 5-HT,”, “tritium-labeled NE” for “tritium-labeled 5-HT”, “concentration: 12” for “concentration: 8”, “C. Ten” for “C. 10”
as §4, with “NE” for “5-HT”, “50%” for “50%,”

Dopamine (DA) uptake = molecular target: T2, Dopamine (DA) uptake (Rattus norvegicus, UniProt P23977); test: Dopamine (DA) uptake inhibitory activity using rat brain synaptosome (corpus striatum); conditions: tritium-labeled DA 2 nM, 37° C. ten minutes, read-out: 50% Inhibitory concentration
T2 construct: The suspension was used as a crude synaptosome fraction; from tissue; host or cells: rat (male Wistar) corpus striatum, crude synaptosome fraction
T2 sequence (P23977 whole entry): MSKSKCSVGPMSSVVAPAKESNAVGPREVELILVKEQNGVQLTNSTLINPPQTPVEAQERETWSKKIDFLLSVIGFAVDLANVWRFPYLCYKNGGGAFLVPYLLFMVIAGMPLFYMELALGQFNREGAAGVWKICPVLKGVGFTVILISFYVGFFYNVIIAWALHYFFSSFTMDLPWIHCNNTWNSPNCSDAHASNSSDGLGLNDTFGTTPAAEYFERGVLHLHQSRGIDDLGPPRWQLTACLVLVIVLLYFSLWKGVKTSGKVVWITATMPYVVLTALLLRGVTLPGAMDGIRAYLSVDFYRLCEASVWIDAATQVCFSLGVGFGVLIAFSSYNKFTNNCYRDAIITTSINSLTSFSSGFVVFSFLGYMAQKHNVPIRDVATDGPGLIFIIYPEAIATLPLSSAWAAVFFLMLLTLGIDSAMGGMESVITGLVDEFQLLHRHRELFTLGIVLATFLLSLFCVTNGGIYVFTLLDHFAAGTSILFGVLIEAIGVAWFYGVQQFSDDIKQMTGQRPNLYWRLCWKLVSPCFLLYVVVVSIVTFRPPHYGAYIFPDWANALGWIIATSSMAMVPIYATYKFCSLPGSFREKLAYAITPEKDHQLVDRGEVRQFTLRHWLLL
Description: Measurement of Dopamine (DA) Uptake Inhibitory Activity of Test Compound Using Rat Brain Synaptosome
as §1, with “corpus striatum.” for “frontal cortex.”, “corpus striatum” for “frontal cortex”
Uptake reaction was performed using each well of a 96-well round-bottom plate and a 200 μl volume in total of a solution containing pargyline (final concentration: 10 μM) and ascorbic acid (final concentration: 0.2 mg/mil).
as §3, with “unlabeled DA,” for “unlabeled 5-HT,”, “tritium-labeled DA” for “tritium-labeled 5-HT”, “concentration: 2” for “concentration: 8”, “C. Ten” for “C. 10”
as §4, with “DA” for “5-HT”, “50%” for “50%,”

[2] = read-out: 50% Inhibitory concentration
[3] = tritium-labeled NE 12 nM, 37° C. ten minutes, read-out: 50% inhibitory concentration

Structure (SMILES) | IC50 (Serotonin (5-HT) uptake; [2]) [nM] | IC50 [1, 3] [nM] | IC50 (Dopamine (DA) uptake) [nM] | IC50 (Serotonin (5-HT) uptake; 50% Inhibitory concentration) [nM] | IC50 ([1]; read-out: 50% inhibitory concentration, tritium-labeled NE 12 nM, 37° C. ten minutes) [nM]
C[C@@H]1CN(c2ccc(F)c3occc23)[C@H]2CCCC[C@@H]2N1 [Example 1124] | 7.1 | 0.8 | 49.3 |  | 
CC1(C)CN(c2cccc3ncccc23)[C@H]2CCCC[C@H]2N1 [Example 120] |  |  | 187 | 9.2 | 9.2
C[C@@H]1CN(c2cccc3ccsc23)[C@@H]2CCCC[C@@H]2N1 (relative stereo) [Example 1113] | 5.4 | 1.7 | 26 |  | 
C[C@@H]1CN(c2ccc3sccc3c2)[C@H]2CCCC[C@@H]2N1 (relative stereo) [Example 285] | 19.7 | 1.4 | 43.9 |  | 
CC1(C)CN(c2ccc(Cl)c(Cl)c2)[C@@H]2CCCCC[C@@H]2N1 (relative stereo) [Example 346] | 10 | 8.8 | 7.8 |  | 
CC1(C)CN(c2ccnc3[nH]ccc23)[C@H]2CCCC[C@@H]2N1 [Example 586, (4aS,8aS)-3,3-dimethyl-1-(1H-pyrrolo[2,3-b]pyridin-4-yl)decahydroquinoxaline fumarate] | 5.2 | 4 | 93 |  | 
C[C@@H]1CN(c2ccc3ccc(C#N)cc3c2)[C@H]2CCCC[C@@H]2N1 [Example 1341] | 6.8 | 42.7 | 113 |  | 
CC1(C)CN(c2ccc(Cl)c3occc23)[C@H]2CCCC[C@@H]2N1 [Example 193] | 3.4 | 4.4 | 5.7 |  | 
CC1(C)CN(c2ccccc2Cl)[C@H]2CCCC[C@H]2N1 [Example 165] | 12 | 2.4 | 6.8 |  | 
C[C@@H]1CN(c2ccc(F)c3ccccc23)[C@H]2CCCC[C@@H]2N1 [Example 1318] | 40.7 | 6.6 | 83.5 |  | 
CC[C@@H]1CN(c2ccc3ccccc3c2)[C@H]2CCCC[C@@H]2N1C (relative stereo) [Example 288] | 56.1 | 22 | 74.7 |  | 
c1cc(N2CC3(CCC3)N[C@H]3CCCC[C@@H]32)c2ccoc2c1 [Example 1047] | 0.7 | 0.7 | 1.1 |  | 
CC1(C)CN(c2ccc(F)c3c2CCC3)[C@H]2CCCC[C@H]2N1 [Example 791] | 1.4 | 0.7 | 161 |  | 
C[C@@H]1CN(c2ccc3sccc3c2)[C@H]2CCCC[C@@H]2N1 [Example 1121] | 8.5 | 0.7 | 29.9 |  | 
Clc1ccc(N2CC3(CCC3)N[C@H]3CCCC[C@H]32)cc1 [Example 276] | 7.2 | 4.5 | 10.9 |  | 
CC1(C)CN(c2ccc(F)c3occc23)[C@H]2CCCC[C@H]2N1 [Example 136] | 1.3 | 0.5 | 7.7 |  | 

Continued, in another order:

IC50 (Serotonin (5-HT) uptake; [2]) [nM] | IC50 [1, 3] [nM] | IC50 (Dopamine (DA) uptake) [nM] | Structure (SMILES) | IC50 (Serotonin (5-HT) uptake; 50% Inhibitory concentration) [nM] | IC50 ([1]; read-out: 50% inhibitory concentration, tritium-labeled NE 12 nM, 37° C. ten minutes) [nM]
2.2 | 76 | 9.7 | CC1(C)CN(c2ccc3cc(C#N)oc3c2)[C@@H]2CCCC[C@@H]2N1 [Example 641] |  | 
5.4 | 23.6 | 200 | Cn1c(C#N)cc2cc(N3CC(C)(C)N[C@@H]4CCCC[C@@H]43)ccc21 [Example 150, 5-((4aR,8aS)-3,3-dimethyldecahydroquinoxalin-1-yl)-1-methyl-1H-indole-2-carbonitrile] |  | 
6.1 | 0.7 | 8.3 | CC1(C)CN(c2cccc3occc23)[C@H]2CCCC[C@H]2N1 [Example 131] |  | 
28.1 | 0.9 | 5.1 | CC1(C)CN(c2csc3ccccc23)[C@H]2CCCC[C@H]2N1 [Example 841] |  | 
6 | 0.8 | 7.9 | CC1(C)CN(c2ccc3ccsc3c2)[C@H]2CCCC[C@@H]2N1 [Example 188] |  | 
2.4 | 60.9 | 378 | CC1(C)CN(c2ccc3sccc3c2)C2COCC2N1 (stereo not drawn) [Example 8] |  | 
2.5 | 5.4 | 202 | CC1(C)CN(c2cc(F)c(F)c3occc23)[C@@H]2CCCC[C@@H]2N1 [Example 580, (4aS,8aR)-1-(6,7-difluorobenzofuran-4-yl)-3,3-dimethyldecahydroquinoxaline hydrochloride] |  | 
42.6 | 30.4 | 83.8 | CC1(C)CN(c2ccc(O)cc2)[C@H]2CCCC[C@H]2N1 [Example 805] |  | 
8.5 | 0.8 | 9.1 | CC1(C)CN(c2cccc3sccc23)[C@H]2CCCC[C@H]2N1 [Example 124] |  | 
4.4 | 1.7 | 18.3 | CC1(C)CN(c2ccc3occc3c2)[C@H]2CCCC[C@@H]2N1 [Example 196] |  | 
6.2 | 8.8 | 64.8 | CC1(C)CN(c2ccc(Cl)c(Cl)c2)C2CCCC2N1 (stereo not drawn) [Example 10] |  | 
1 | 9.5 | 78.9 | CC1(C)CN(c2ccc3sccc3c2)[C@@H]2CCC[C@@H]2N1 (racemic) [Example 7] |  | 
5.8 | 0.9 | 31.9 | CC1(C)CN(c2cccc3sccc23)[C@@H]2CCCC[C@@H]2N1 (relative stereo) [Example 27] |  | 
6.5 | 47.6 | 173 | CC1(C)CN(c2ccc(OC(F)F)c3occc23)[C@@H]2CCCC[C@H]2N1 [Example 983] |  | 
1.5 | 1 | 9 | CC1(C)CN(c2ccc3[nH]c(C#N)cc3c2)[C@@H]2CCCC[C@@H]2N1 [Example 654] |  | 
7.2 | 4.9 | 95.7 | CC1(C)CN(c2cccc3[nH]ccc23)[C@@H]2CCCC[C@@H]2N1 [Example 85] |  | 
6.2 | 3 | 5.2 | CC1(C)CN(c2ccc3[nH]c(C#N)cc3c2)[C@H]2CCCC[C@H]2N1 [Example 781] |  | 
10 | 0.8 | 42 | CC1(C)CN(c2ccc(O)c(Cl)c2)[C@H]2CCCC[C@@H]2N1 [Example 918] |  | 
6.4 | 4.4 | 74.8 | CC1(C)CN(c2ccc3ncsc3c2)[C@H]2CCCC[C@@H]2N1 (racemic) [Example 405] |  | 
